Data: patent publication US12629382B2, “Therapy” (Vestlandets Innovasjonsselskap AS, priority 2019, dated 2026)

Assays:
[1] = target: T1, xCT antiport (Homo sapiens, UniProt Q9UPY5); conditions: reported in the literature; cited from earlier work
T1 sequence (Q9UPY5 1-501): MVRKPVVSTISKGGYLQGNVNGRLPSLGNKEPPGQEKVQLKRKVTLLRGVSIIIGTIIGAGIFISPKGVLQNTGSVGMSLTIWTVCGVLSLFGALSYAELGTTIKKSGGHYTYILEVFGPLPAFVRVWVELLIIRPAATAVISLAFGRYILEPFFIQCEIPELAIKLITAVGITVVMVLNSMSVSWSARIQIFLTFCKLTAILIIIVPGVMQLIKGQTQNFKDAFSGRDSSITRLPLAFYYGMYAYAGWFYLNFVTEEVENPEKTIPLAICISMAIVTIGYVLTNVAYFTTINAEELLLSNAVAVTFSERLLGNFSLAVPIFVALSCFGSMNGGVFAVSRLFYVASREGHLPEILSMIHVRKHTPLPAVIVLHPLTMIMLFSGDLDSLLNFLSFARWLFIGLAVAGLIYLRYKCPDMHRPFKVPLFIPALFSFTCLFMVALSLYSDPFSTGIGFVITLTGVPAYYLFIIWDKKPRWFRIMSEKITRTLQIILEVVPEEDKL
T1 sequence (P08195 1-529 partner): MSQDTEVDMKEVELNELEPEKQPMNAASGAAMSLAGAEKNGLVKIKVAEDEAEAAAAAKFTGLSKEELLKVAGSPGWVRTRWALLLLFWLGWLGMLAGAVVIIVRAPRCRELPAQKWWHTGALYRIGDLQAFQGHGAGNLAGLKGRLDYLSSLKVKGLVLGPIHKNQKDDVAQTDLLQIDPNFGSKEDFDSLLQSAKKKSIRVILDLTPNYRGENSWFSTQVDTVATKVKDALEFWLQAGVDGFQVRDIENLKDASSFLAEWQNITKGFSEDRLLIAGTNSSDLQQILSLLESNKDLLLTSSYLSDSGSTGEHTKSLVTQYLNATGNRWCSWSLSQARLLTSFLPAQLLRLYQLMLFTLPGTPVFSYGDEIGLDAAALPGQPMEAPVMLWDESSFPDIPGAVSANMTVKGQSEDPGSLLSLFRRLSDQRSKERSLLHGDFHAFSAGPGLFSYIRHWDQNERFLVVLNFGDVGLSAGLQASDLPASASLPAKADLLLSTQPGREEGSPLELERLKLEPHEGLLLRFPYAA

[2] = system: A172 glioma cells; assay: Intracellular GSH, GSH-Glo assay, A172 cells; format: cell-based; conditions: Homo sapiens, 48 h, normalized to untreated control; for activity at 250 µM: A 172, 250 μM compound, read-out: Intracellular GSH level A172 250 μM; for activity at 500 µM: A 172, 500 μM compound, read-out: Intracellular GSH level A172 500 μM
Protocol: (§1) The cancer cell lines A172, A375, U87 and MCF7 were purchased from American Type Culture Collection (ATCC; Manassas, Va., USA). Cells were cultured in Dulbecco's Modified Eagle's Medium (DMEM) supplemented with 10% fetal bovine serum, 2% v/v L-glutamine, 3.2% v/v non-essential amino acids, antibiotics 2% v/v (penicillin-streptomycin), and 0.02% v/v Plasmocin at 37° C. and 5% CO2.
(§2) xCT expression of cancer cell lines was evaluated by western blotting from protein samples of cell lysates as described in Sleire et al., Oncogene 34: 5951-5959, 2015. Protein concentrations were determined by BCA assay (Thermo Fisher Scientific, USA) followed by SDS PAGE and immunoblotting using rabbit anti-xCT (Thermo Fisher Scientific) and rabbit anti-GAPDH (Abcam, Cambridge, UK) as a loading control. The compounds were dissolved in dimethylsulfoxide (DMSO) (Sigma Aldrich, Germany) and stock concentrations of 100 mM were stored at −20° C. in aliquots. Final concentrations were made in growth medium before adding to the cell monolayers.
(§3) The compounds were evaluated based on the measurement of intracellular Glutathione (GSH) which was performed by the GSH-Glo assay (Promega, Madison, WI, USA, cat #V6912) according to the manufacturer's recommended procedures. 5000 cells per well were seeded in a flat bottomed 96-well plate. After attachment to the well surface, cells were exposed to 250 μM and 500 μM of each compound for 48 h. After that, GSH-Glo reagent was added followed by short incubation and addition of luciferin detection reagent. Bioluminescence was measured using a luminometer (Victor 3 1420 multi-label counter, Perkins Elmer, Waltham, MA, USA). IC50 doses for the compounds SAS, DC10 and DC14 were determined in A172 glioma cells, using the GraphPad Prism v6 software (GraphPad Software, Inc. CA, USA). All measurements were normalized to the untreated control and were performed three times.

[3] = system: U87; assay: Intracellular GSH, GSH-Glo assay, U87 cells; format: cell-based; conditions: Homo sapiens, U-87 MG, 48 h, normalized to untreated control; for activity at 250 µM: 250 μM compound, read-out: Intracellular GSH level U87 250 μM; for activity at 500 µM: 500 μM compound, read-out: Intracellular GSH level U87 500 μM
Protocol: as §1, §2, §3

[4] = system: A375; assay: Intracellular GSH, GSH-Glo assay, A375 cells; format: cell-based; conditions: Homo sapiens, 48 h, normalized to untreated control; for activity at 250 µM: A-375, 250 μM compound, read-out: Intracellular GSH level A375 250 μM; for activity at 500 µM: A-375, 500 μM compound, read-out: Intracellular GSH level A375 500 μM
Protocol: as §1, §2, §3

[5] = system: MCF7; assay: Intracellular GSH, GSH-Glo assay, MCF7 cells; format: cell-based; conditions: Homo sapiens, 48 h, normalized to untreated control; for activity at 250 µM: 250 μM compound, read-out: Intracellular GSH level MCF7 250 μM; for activity at 500 µM: 500 μM compound, read-out: Intracellular GSH level MCF7 500 μM
Protocol: as §1, §2, §3

[6] = system: A375 melanoma cells; assay: Validation of DC10 as a radiosensitizer in vivo, subcutaneous A375 tumours; set-up: species or system NOD/Scid mice; conditions: DC10+RT: 8 mg DC10 on day 14, 4 Gy radiation at day 15, compared with control, DC10 alone
Description: (§4) Experiments were approved by the Norwegian Animal Research Authority (Oslo, Norway) in accordance with the Guide for the Care and Use of Laboratory Animals (Institute for Laboratory Animal Research, National Research Council. Washington, D.C.: National Academy Press, 1996). NOD/Scid mice were kept at the animal facility at Department of Biomedicine at the University of Bergen. The animals were provided a standard pellet diet and tap water ad libitum. They were kept in a pathogen free environment at a constant temperature and humidity, and standard 12/12 h light and dark cycle.
In this study 20 NOD/Scid mice were grafted with A375 melanoma cells. The A375 cell line was maintained in incubators at 37° C. and 5% CO2 prior to use in the animal experiment. A375 was cultured in DMEM (Sigma-Aldrich, St-Louis, MO, USA) with the supplement of 10% fetal bovine serum (FBS), 3.2% non-essential amino acids, 100 units/mL Penicillin/Streptomycin, […] L-glutamine (all Lonza, Cologne, Germany). Cells were passaged in vitro in medium sized 75 cm^2 culture flasks. […]
For induction of subcutaneous tumours, 5×10^5 A375 cells were injected in the right flank of 20 NOD/SCID mice, and the animals were randomly assigned to 4 groups with […]. […] Tumour growth data for the treatment groups and different time points were analysed with repeated measures for 2-way Anova analysis.

[7] = Assessment of toxicity associated with DC10 in mice; format: in vivo; conditions: 16 mg by oral gavage, NOD/Scid mice, 24 or 48 hours
Description: as §4
DC10 was dissolved in distilled water and administered as a slurry by oral gavage. 16 mg was administered in a volume of 0.2 ml to each animal. […] Blood was sampled through heart puncture with a 3 ml syringe and 0.75 to 1 ml blood was collected. 250 μl was transferred to EDTA tubes that were tilted 15 times to avoid coagulation. The remaining volumes were transferred to 1.5 ml cryotubes and left to coagulate for 3 minutes before centrifugation at 2200 RCF for 10 minutes. This was followed by transfer of the supernatant to new cryotubes that were kept at −20° C., then thawed immediately prior to analysis at the clinical laboratory at Haukeland University Hospital. Blood collected on EDTA tubes underwent hematological analyses, whereas serum underwent biochemical analyses. Organs were also harvested, fixed on 4% formalin embedded in paraffin, sectioned and stained with hematoxylin and esosin.

| SMILES | xCT activity [1] | activity at 250 µM [2] | activity at 500 µM [2] | activity at 250 µM [3] | activity at 500 µM [3] | activity at 250 µM [4] | activity at 500 µM [4] | activity at 250 µM [5] | activity at 500 µM [5] | Tumour volume versus the other groups [6] | Clinical inspection [7] | Hematological analysis: hemoglobin, thrombocytes and leukocytes [7] | Histopathological examination of organs [7] | Macroscopic inspection of brain, lungs, heart, intestines, liver, kidneys and spleen [7] | Biochemical blood analysis: S-Kreatinin, γ-GT, S-ASAT, S-ALAT, Amylase, S-Glukose ([7]; serum) |
| --- | --- | --- | --- | --- | --- | --- | --- | --- | --- | --- | --- | --- | --- | --- | --- |
| Nc1ccc(O)c(C(=O)O)c1 [mesalazine, 5-amino-2-hydroxybenzoic acid] | without xCT activity |  |  |  |  |  |  |  |  |  |  |  |  |  |  |
| O=C(O)c1cc(/N=N/c2ccc(S(=O)(=O)Nc3ccccn3)cc2)ccc1O [SAS, Sulfasalazine, reference compound] | blocking the cell membrane xCT antiport | 15% | 2.1% | 14% | 8% | 13.5% | 5.3% | 26.2% | 7.6% |  |  |  |  |  |  |
| Nc1ccc(S(=O)(=O)Nc2ccccn2)cc1 [sulfapyridine, 4-amino-N-(pyridin-2-yl)benzenesulfonamide] | without xCT activity |  |  |  |  |  |  |  |  |  |  |  |  |  |  |
| O=C(O)c1cc(/C=C/c2ccc(-c3ccccc3)cc2)ccc1O [DC10, (E)-5-(2-([1,1′-biphenyl]-4-yl)vinyl)-2-hydroxybenzoic acid] |  | 10.4% | 2.3% | 76.1% | 7.3% | 27.6% | 3.1% | 28% | 10.9% | significantly smaller | did not reveal any signs, symptoms or deficits | normal | did not show evidence of inflammation or other signs of tissue injury | appeared normal | no significant elevation in S-Kreatinin (Kidney function), or shift in γ-GT, S-ASAT, S-ALAT, Amylase and S-Glukose |
